This assay concerns Rattus norvegicus. As to the kind of experiment: Anti-allodynic activity in rat model of capsaicin-induced inflammatory paw pain assessed as inhibition of mechanical allodynia at 5 uM administered intrathecally 30 mins prior to capsaicin induction and measured at 10 mins interval for 65 mins by von frey test relative to control. The class given is functional. As to conditions: for inhibition in vivo at 5 µM: central, 1.583 h, time 95 min; for inhibition: time 95.0 min.

Calls of active or inactive are those of the source. The rule behind the calls is not given here.

For orientation: inhibition in vivo means the share of the control response that was lost under treatment.

As to `O=c1[nH]cc(OC2CCNCC2)cc1-c1cccc2[nH]ccc12`, the inhibition in vivo at 5 µM amounted to 64%. As for `Cn1ccc2c(-c3cc(Nc4ccncc4)c[nH]c3=O)cccc21`, the inhibition result is “inactive”. Same read-out and setting: the result for `O=C(Nc1c[nH]c(=O)c(-c2cccc3[nH]ccc23)c1)C1CCNCC1` reads “Active”. As for `O=C(Nc1c[nH]c(=O)c(-c2cccc3[nH]ccc23)c1)c1ccc([N+](=O)[O-])cc1`, the inhibition in vivo at 5 µM was determined as 58%. As to `O=C(Nc1c[nH]c(=O)c(-c2cccc3[nH]ccc23)c1)c1ccncc1`, the inhibition result is “Active”. Still for that read-out and setting: the result for `O=c1[nH]cc(Oc2ccc([N+](=O)[O-])cc2)cc1-c1cccc2[nH]ccc12` reads “Active”. Take `COc1ncc(Nc2ccncc2)cc1-c1cccc2[nH]ccc12`: the inhibition in vivo at 5 µM is 85%.

With `CN(c1ccncc1)c1c[nH]c(=O)c(-c2cccc3[nH]ccc23)c1`, the inhibition result was “Active”. In the case of `O=c1[nH]cc(Oc2ccncc2)cc1-c1cccc2[nH]ccc12`, the inhibition entry is “Active”. On the same count and under the same terms, the entry for `CCN(CC)CCCCn1ccc2c(-c3cc(Nc4ccncc4)c[nH]c3=O)cccc21` is “inactive”; for `CCN(CC)CCCn1ccc2c(-c3cc(Nc4ccncc4)c[nH]c3=O)cccc21` it is “inactive”.

As for `O=c1[nH]cc(Nc2ccncc2)cc1-c1cccc2[nH]ccc12`, the inhibition in vivo at 5 µM is 56%.

The record behind these values is ChEMBL document CHEMBL5576153, “Synthesis of diversely substituted pyridin-2(1H)-ones and in vivo evaluation of their anti-allodynic effect on cutaneous inflammatory mechanical allodynia” (2024).
